The text below walks through data of patent US20080194499A1, “Composition for selective serotonin reuptake inhibition and process thereof” (priority 2007, published 2008).

Each structure is given as a SMILES string.

What all share (type): in vivo, Swiss albino mice
In data set [1] the test system is mice. As to the kind of experiment: Forced swim test after reserpine administration. As to the method: Reserpine Antagonism Depletion of biogenic amines in brain induces not only catalepsy but also hypothermia in rodents. The decrease of body temperature induced by reserpine is antagonized by antidepressants, MAO-inhibitors and central stimulants. Reserpine also decreases the levels of brain neuroamines like serotonin. […] Forced Swim Test after Reserpine Administration Male Swiss albino mice weighing 25-30 g would be used. All the animals would be Pre trained individually to swim for 15 minutes in vertical plexiglass cylinder (25×23 cm) containing 12 cm of water maintained at 25° C. They would be injected with 5 mg/kg reserpine i.p. after 20 hr of pretraining.

The subject of data set [2] is mice. As to the kind of experiment: Locomotor activity test after reserpine administration. The protocol: The intra-peritoneal administration of reserpine (5 mg/kg, i.p.) in mice leads to reduce locomotor activity which can be antagonized by antidepressants, MAO-inhibitors and central stimulants. Male Swiss albino mice weighing 25-30 g would be used.
The test system of data set [3] is mice. The data set is described as follows: Tail suspension test in mice. As to conditions: 64 mg/kg p.o. The source says:
Effect of Test Compound on Tail Suspension in Mice
This test is used to evaluate potential antidepressants by determining the percentage decrease in immobility in rodents. […] Clinically effective anti-dependents reduce the immobility that mice display after active and unsuccessful attempts to escape when suspended by tail.
Swiss albino mice of either sex weighing 25-30 g would be housed in plastic cages for at least 10 days prior to testing. Animals would be allowed to adapt to the testing environment for 1 hr before testing. […] For the test, the mice would be suspended on the edge of a shelf 58 cm above a tabletop by adhesive tape placed approximately 1 cm from the tip of the tail. The duration of immobility would be recorded for a period of 6 min continuously. Mice are considered immobile when they hang passively and completely motionless for at least […].
The percentage of animals showing the passive behavior is counted and compared with vehicle treated controls using various doses.

Data set [4] concerns mice. As to the kind of experiment: Locomotor activity in mice (Actophotometer). The protocol: Effect of Test Compound on Locomotor Activity in Mice This test is conducted to rule out the sedative aspect of the anti-depressants. Besides, it can also eliminate certain muscle relaxant effects of the drug. Swiss albino mice are tested in a locomotors chamber with laser sensors to check their movements. The locomotors score is a direct function of the mobility of the animal. Decrease in mobility could be due to sedative effect and muscle relaxant effect. Swiss albino mice of either sex weighing 25-30 g would be housed in plastic cages for at least 10 days prior to testing. Animals would be allowed to adapt to the testing environment for 1 hr before testing. […] For the test the mice would be individually placed in Actophotometer.

The test system of data set [5] is mice. The data set is described as follows: Forced swim test. As to conditions: 100 mg/kg p.o. As to the method: Mice forced to swim in a restricted space from which they cannot escape are induced to a characteristic behavior of immobility.
Male Swiss albino mice weighing 25-30 g would be brought into the laboratory at least one day before the experiment and would be housed separately in cages. Mice would be individually forced to swim inside a vertical Plexiglas cylinder (25×23 cm) containing 12 cm of water maintained at 25° C.
After 2-3 min activity begins to subside and to be interspersed with phases of immobility or floating of increasing length. After 5-6 min immobility reaches a plateau where the mice remain immobile for approximately 80% of the time. After 15 min in the water the mice would be removed and would be allowed to dry in a heated enclosure (32° C.) before being returned to their home cages. They would again be placed in the cylinder 24 hr later and the total duration of immobility would be counted for the last 4 min of 6 min test session. An animal is judged to be immobile whenever it remains floating passively in the water in a slightly hunched but upright position, its nose just above the surface.

Data set [6] concerns re uptake of serotonin. As to the kind of experiment: 5-Hydroxytryptophan (L 5-HTP) potentiation in mice. The conditions noted are these: 64 mg/kg p.o. The protocol: 5-Hydroxytryptophan (L 5-HTP) Potentiation in Mice
Several antidepressant agents potentiate serotonin effects by a block of the re uptake of serotonin. 5-Hydroxytryptophan is used as the precursor of serotonin.
Groups of 6 Swiss albino mice (25-30 g) would be used. […] The mice would be then placed into glass bell jars and the number of head twitches would be counted in five 2-min intervals (between 14 and 16, 24 and 26, 34 and 36, 44 and 46 and 54 and 56 min).

As for `COC(=O)[C@H]1[C@H]2C[C@@H]3c4[nH]c5cc(OC)ccc5c4CCN3C[C@H]2C[C@@H](OC(=O)c2cc(OC)c(OC)c(OC)c2)[C@@H]1OC` [Reserpine], in data set [1] (reserpine 5 mg/kg i.p. alone), the “TOTAL IMMOBILITY TIME” value came to 221.60 ± 6.793 s. The “TOTAL LOCOMOTOR ACTIVITY COUNTS” value in data set [2] (reserpine 5 mg/kg i.p. alone) is reported as 121.17 ± 06.112.
Turning to `CN(C)CCCN1c2ccccc2CCc2ccccc21` [Imipramine], the “TOTAL IMMOBILITY TIME” value in data set [3] (60 min before test, 6 min recording) was determined as 90.90 ± 7.690 s; in data set [5] (one hour before test, last 4 min of 6 min session) it was 45.17 ± 4.450 s; in data set [1] (100 mg/kg oral, 4 h after reserpine 5 mg/kg i.p., 6 min swim), 063.57 ± 3.320 s. Also, the “% DECREASE IN IMMOBILITY” value in data set [3] (vs vehicle group) is given as 51.88%; in data set [5] (vs vehicle group), 71.44%; in data set [1] (100 mg/kg oral, vs reserpine group), 71.24%. Also, in data set [4] (64 mg/kg p.o., 60 min before test, 10 min count), the “TOTAL LOCOMOTOR ACTIVITY COUNTS” value is 127.00 ± 06.90. Moreover, the “% INCREASE IN LOCOMOTOR ACTIVITY” value is −38.80% in data set [4] (64 mg/kg p.o., vs vehicle group) and 079.91% in data set [2] (64 mg/kg oral, vs reserpine group). For the same compound, the “sedative effect (in words)” value in data set [4] (mice, locomotor activity test) was “induces sedation”. For the same compound, in data set [6] (60 min before 75 mg/kg i.p. 5-HTP), the “TOTAL NO OF HEAD TWITCHES MEAN ± SEM” value was 13.25 ± 2.477. Also, the “% INCREASE IN NO OF HEAD TWITCHES” value in data set [6] (vs vehicle group) is on record as −38.73%.
